# Where two headings read alike, the source gives them in different places.
# Legend:
# SH-SY5Y cells [1] = assay: ROS assay (2',7'DCFH2-DA), rotenone-induced neurotoxicity; format: cell-based, human
# Experimental: The ROS measurement was assayed by 2′,7′-dichlorofluorescin diacetate (2′, 7′DCFH2-DA, Sigma, no. D6883). The protocol was previously described in detail.[10] […] The following day, all treatments were carried out with warmed HBSS containing 25 mM HEPES (hereafter referred to as HBSS), and during the operational steps, the cells were kept at 37 °C to minimize temperature stress.
# [2] = set-up: method as in PMID 38190615, PMID 35228010; details: AMES test; cited from earlier work
# 5-HT7R = details: read-out: radioligand binding assay Ki; cloned receptors; cited from earlier work
# rats [3] = details: acute administration, male Wistar rats, (+)MK-801; cited from earlier work
# [4] = set-up: method as in PMID 38190615, PMID 35228010; details: cited from earlier work
# SH-SY5Y cells [5] = assay: MTS cell viability assay 27 h; format: cell-based, human; details: for IC50: SH-SY5Y
# Experimental: This study used the human neuroblastoma cell line SH-SY5Y (ATCC no. CRL-2266) to investigate the effect on the neuronal cells. The cells (8 × 10^3 cells/100 μL/well) were seeded in transparent 96-well plates (Thermo Scientific, Nunc, no. 161093) in DMEM/F12 (Gibco, no. 11039021) supplemented with 10% FBS (Gibco, no. 10500-064) and cultured overnight. […] Treatment with the compounds was performed for 27 h. After incubation, the cell viability was examined using an MTS-based CellTiter96 AQueous One Solution Cell Proliferation Assay (Promega, Madison, WI, USA) following the manufacturer’s protocol. Briefly, 20 μL of MTS solution was pipetted into each well containing 100 μL of culture or culture medium (negative control) and incubated at 37 °C for 1 h. The absorbance was measured at 490 nm using a Tecan Spark’s multimode plate reader (Tecan, Männedorf, Switzerland). A reference wavelength of 630 nm was used to subtract the background.
# SH-SY5Y cells [6] = assay: qRT-PCR of neurodegeneration-associated genes; format: cell-based, human; details: 10 and 50 μM, 24 h
# [7] = set-up: method as in PMID 38190615, PMID 35228010; details: LC/MS after biotransformation in rLMs; cited from earlier work
# HT-22 cell line [8] = assay: protection against Aβ1–42, cell membrane damage (ToxiLight); format: cell-based, mouse; details: 10 μM pretreatment 1 h, Aβ1–42 35 μM 16 h
# Experimental: Cells were cultured in Dulbecco’s modified Eagle’s Medium-high glucose (DMEM, GlutaMAX ThermoFisher) supplemented with 10% inactivated fetal bovine serum heat (Thermo Fisher), 100 IU/mL penicillin (Merck), and 100 μg/mL streptomycin (Merck). Cells were cultured in flasks (area 175 cm^2, Nunc) and incubated at 37 °C, 5% CO2. To measure the neuroprotective effect against Aβ1–42, cells were placed in a 96-well culture plate (5 × 10^3 cells per well, Falcon). To measure the toxicity of tested compounds, cells were placed in a 96-well culture plate (5 × 10^3 and 2 × 10^4 cells per well, Falcon).
# Stock solutions were prepared at a concentration of 10 mM for the tested compounds. A minimum of 1 mg of each tested compound was weighed and dissolved in an appropriate volume of dimethyl sulfoxide (DMSO). Serial dilutions were prepared in DMSO, and then, the diluted compounds were transferred to phosphate-buffered saline (PBS), mixed, and put into a medium with adherent cells. Before the assays, eventual precipitation or opalescence was checked. […]
# Then, 20 μL of adenylate kinase detection reagent was added. The luminescence was measured after 10 min of incubation with a plate reader, POLARstar Omega (BMG Labtech). The results are expressed as a percentage of the control (Aβ1–42), corresponding to the percentage of dead cells concerning the control sample.
# NRF2 = assay: Western blot for NRF2 (total and nuclear extracts); format: cell-based, human; details: 10 μM, 24 h
# HT-22 cell line [9] = assay: protection against Aβ1–42, ROS (CellROX); format: cell-based, mouse; details: 10 μM pretreatment 1 h, Aβ1–42 35 μM 16 h
# Experimental: Cells were cultured in Dulbecco’s modified Eagle’s Medium-high glucose (DMEM, GlutaMAX ThermoFisher) supplemented with 10% inactivated fetal bovine serum heat (Thermo Fisher), 100 IU/mL penicillin (Merck), and 100 μg/mL streptomycin (Merck). Cells were cultured in flasks (area 175 cm^2, Nunc) and incubated at 37 °C, 5% CO2. To measure the neuroprotective effect against Aβ1–42, cells were placed in a 96-well culture plate (5 × 10^3 cells per well, Falcon).
# Stock solutions were prepared at a concentration of 10 mM for the tested compounds. A minimum of 1 mg of each tested compound was weighed and dissolved in an appropriate volume of dimethyl sulfoxide (DMSO). Serial dilutions were prepared in DMSO, and then, the diluted compounds were transferred to phosphate-buffered saline (PBS), mixed, and put into a medium with adherent cells. Before the assays, eventual precipitation or opalescence was checked.
# Aβ1–42 (Merck) was initially dissolved in 1,1,1,3,3,3- hexafluor-2-propanol (Merck). […] After this time, the Aβ1–42 solution was evaporated by using nitrogen gas. Next, DMSO was added to obtain a 2 mM stock solution of β-amyloid. […]
# After the end of incubation with the tested compounds, the supernatant was removed, and cells were incubated with CellROX (5 μM) in DMEM FluoroBrite (ThermoFisher) for 1 h at 37 °C. The results are expressed as a percentage of control (Aβ1–42).
# rats [10] = assay: NORT after 21 day administration, discrimination index; format: in vivo, rat; details: 21 days; for reversal of (+)MK-801-induced memory disturbances (DI): (+)MK-801 0.1 mg/kg
# Experimental: Standard laboratory food (LSM-B) and filtered water as well as environment enrichment were freely available. Animals were randomly divided into treatment groups using a computer-based random order generator. All of the experiments were performed by two observers unaware of the treatment applied between 9:00 and 14:00 on separate groups of animals.
# In the NOR test (NORT), rats were randomly divided into experimental groups (n = 8/group). […] All compounds were prepared immediately before administration and were injected intraperitoneally (i.p.) in a constant volume of 2 mL/kg. […] The control group received 1% Tween 80 on the same schedule.
# The test was carried out according to the method described by Ennaceur.[46] NORT was conducted in two black-painted wood boxes (60 cm × 60 cm × 60 cm). A video camera mounted above the boxes recorded all experiments. Two days before the test, the rats were placed in the empty experimental boxes for 5 min as a habituation to the test area. On the third day, the test was performed in 2 trials lasting for 3 min at one-hour intervals. First session, familiarization (T1) with two identical objects (A1 and A2) located in the opposite corners of the boxes, approximately 10 cm from the walls, and second trial, recognition (T2) with one familiar (A) and one novel object (B). Metal cans and glass jars with sand were used as the objects. The boxes were cleaned and dried after each measurement. The exploration time (E) of the objects (such as looking, licking, sniffing, or touching while sniffing) during T2 was measured, and the discrimination index (DI) was calculated according to the following formula: DI = (EB – EA)/(EA + EB).
# The normality of data distribution and the homogeneity of variance were checked using the Shapiro–Wilk’s test and Levene’s test, respectively. All behavioral results are shown as the means ± SEM.
# 5-HT1AR = details: read-out: radioligand binding assay Ki; cloned receptors; cited from earlier work
# SH-SY5Y cells [11] = assay: MTS assay 72 h, neurotoxic effect; format: cell-based, human; details: 10 and 50 μM
# Experimental: SHSY5Y cells were grown in DMEM supplemented by 10% FBS, L-glutamine (2 mM), and penicillin (100u/mL)/streptomycin (100 μg/mL). The cell line was tested for mycoplasma using DAPI staining and the LookOut Mycoplasma PCR Detection Kit (MP0035, Merck). The cell line was authenticated after thawing by a morphology check, cell proliferation rate evaluation, and species verification by PCR. Bacteria contamination was excluded. […] Subsequently, cells were subjected to a CellTiter 96 AQueous One Solution Cell Proliferation Assay (Promega), according to the manufacturer’s protocol. The absorbance at 490 nm was evaluated to estimate the cell number.
smiles,measurement,setting,value
"CN1CCN(c2nc(N)nc(C(C)(C)Sc3ccc4ccccc4c3)n2)CC1 [WA-22, 4-(4-methylpiperazin-1-yl)-6-(2-(naphthalen-2-ylthio)propan-2-yl)-1,3,5-triazin-2-amine]",ROS level (Ctr set as 100%),"SH-SY5Y cells [1]; compound 10 μM pretreatment 1 h, then ROT 32.5 μM 3 h",128%
same,effect on ROS of compound alone,SH-SY5Y cells [1]; without ROT,did not exert any effect
same,mutagenic,[2],no
same,Ki,5-HT7R,0.607 µM
same,memory-protective action at doses as low as,rats [3],0.3 mg/kg
same,permeability PAMPA Pe,[4],13.8 × 10^–6 cm/s
same,IC50,"SH-SY5Y cells [5]; Homo sapiens, 27 h, read-out: IC50 x̅ ± SD, MTS, SH-SY5Y, 27 h of exposure",> 200 µM
same,effect on cell viability,"SH-SY5Y cells [5]; all tested concentrations (0–50 μM), 27 h",did not affect cell viability
same,IC50,"SH-SY5Y cells [5]; read-out: IC50 x̅ ± SD, MTS, 27 h of exposure",238 ± 15 µM
same,NRF2 transcription,SH-SY5Y cells [6],neither WA-22 nor PPK-32 were able to stimulate its transcription
same,"expression of NQO1, SOD1, and HO1",SH-SY5Y cells [6],"induces the expression of the same genes, although with a lower significance and increase"
same,expression of pro-inflammatory gene NFkB,SH-SY5Y cells [6],neither WA-22 nor PPK-32 were able to downregulate
same,"metabolic stability, % of remaining structure",[7],74%
same,protection of cell integrity against membrane destruction caused by Aβ1–42,HT-22 cell line [8],neuroprotective activities
same,NRF2 protein amount (total extract),NRF2; GAPDH loading control,protein amount was not modulated
same,NRF2 translocation from cytoplasm to nucleus,"NRF2; nuclear extracts, H3 loading control",effectively induce a shuffling of this protein inside the nucleus
same,decrease of ROS induced by Aβ,HT-22 cell line [9],only PPK-32 displayed the ability to decrease ROS
same,influence on memory compared to vehicle-treated rats (DI),"rats [10]; 1 mg/kg/day i.p., without (+)MK-801",No memory changing
same,reversal of (+)MK-801-induced memory disturbances (DI),rats [10]; 1 mg/kg/day i.p.,significantly reversed
same,reversal of (+)MK-801-induced memory disturbances (DI),rats [10]; 3 mg/kg/day i.p.,"also observed for a dose of 3 mg/kg, but memory restoration was not at the same level as that of control rats"
same,Ki,5-HT1AR,2.29 µM
same,neurotoxic effect (MTS),SH-SY5Y cells [11],no significant differences
